Data published in ChEMBL document CHEMBL5244230, “Artemisinin-derived hybrids and their anticancer activity” (Eur J Med Chem, 2020).

Experiments:
Type in all cases: functional, cell-based
NCI-H460 = assay: Antiproliferative activity against human NCI-H460 cells assessed as reduction in cell viability measured for 72 hrs by MTT assay; details: NCI-H460, 72 h
A549 = assay: Antiproliferative activity against human A549 cells assessed as reduction in cell viability measured for 72 hrs by MTT assay; details: A549, 72 h
MDA-MB-231 = assay: Antiproliferative activity against human MDA-MB-231 cells assessed as reduction in cell viability measured for 72 hrs by MTT assay; details: MDA-MB-231, 72 h
HT-29 = assay: Antiproliferative activity against human HT-29 cells assessed as reduction in cell viability measured for 72 hrs by MTT assay; details: HT-29, 72 h
HeLa = assay: Antiproliferative activity against human HeLa cells assessed as reduction in cell viability measured for 72 hrs by MTT assay

Measured: IC50

COc1cccc(/C=C/C(=O)c2ccc(COCC(=O)N[C@H]3O[C@@H]4O[C@@]5(C)CC[C@H]6[C@H](C)CC[C@@H]([C@H]3C)[C@@]46OO5)cc2)c1
90 nM: all assays above

C[C@H]1[C@@H](NC(=O)COCc2ccc(C(=O)/C=C/c3c(Cl)cccc3Cl)cc2)O[C@@H]2O[C@@]3(C)CC[C@H]4[C@H](C)CC[C@@H]1[C@@]24OO3
90 nM: all assays above

C[C@H]1[C@@H](NC(=O)COCc2ccc(C(=O)/C=C/c3ccc(Cl)cc3F)cc2)O[C@@H]2O[C@@]3(C)CC[C@H]4[C@H](C)CC[C@@H]1[C@@]24OO3
90 nM: all assays above

C[C@H]1[C@@H](NC(=O)COCc2ccc(C(=O)/C=C/c3ccc(F)c(F)c3)cc2)O[C@@H]2O[C@@]3(C)CC[C@H]4[C@H](C)CC[C@@H]1[C@@]24OO3
90 nM: all assays above

C[C@H]1[C@@H](NC(=O)COCc2ccc(C(=O)/C=C/c3cccc(Cl)c3Cl)cc2)O[C@@H]2O[C@@]3(C)CC[C@H]4[C@H](C)CC[C@@H]1[C@@]24OO3
90 nM: all assays above

C[C@H]1[C@@H](NC(=O)COCc2ccc(C(=O)/C=C/c3ccc(F)cc3)cc2)O[C@@H]2O[C@@]3(C)CC[C@H]4[C@H](C)CC[C@@H]1[C@@]24OO3
90 nM: all assays above

C[C@H]1[C@@H](NC(=O)COCc2ccc(C(=O)/C=C/c3ccc(F)cc3F)cc2)O[C@@H]2O[C@@]3(C)CC[C@H]4[C@H](C)CC[C@@H]1[C@@]24OO3
90 nM: all assays above

C[C@H]1[C@@H](NC(=O)COCc2ccc(C(=O)/C=C/c3cccc(OC(F)(F)F)c3)cc2)O[C@@H]2O[C@@]3(C)CC[C@H]4[C@H](C)CC[C@@H]1[C@@]24OO3
90 nM: all assays above

COc1ccc(OC)c(/C=C/C(=O)c2ccc(COCC(=O)N[C@H]3O[C@@H]4O[C@@]5(C)CC[C@H]6[C@H](C)CC[C@@H]([C@H]3C)[C@@]46OO5)cc2)c1
90 nM: all assays above

C[C@H]1[C@@H](NC(=O)COCc2ccc(C(=O)/C=C/c3ccccc3F)cc2)O[C@@H]2O[C@@]3(C)CC[C@H]4[C@H](C)CC[C@@H]1[C@@]24OO3
90 nM: all assays above

COc1ccc(/C=C/C(=O)c2ccc(COCC(=O)N[C@H]3O[C@@H]4O[C@@]5(C)CC[C@H]6[C@H](C)CC[C@@H]([C@H]3C)[C@@]46OO5)cc2)c(OC)c1OC
90 nM: all assays above

C[C@H]1[C@@H](NC(=O)COCc2ccc(C(=O)/C=C/c3ccc(S(C)(=O)=O)cc3)cc2)O[C@@H]2O[C@@]3(C)CC[C@H]4[C@H](C)CC[C@@H]1[C@@]24OO3
90 nM: all assays above

C[C@H]1[C@@H](NC(=O)COCc2ccc(C(=O)/C=C/c3ccc(OC(F)(F)F)cc3)cc2)O[C@@H]2O[C@@]3(C)CC[C@H]4[C@H](C)CC[C@@H]1[C@@]24OO3
90 nM: all assays above
